The structures appear in SMILES notation. Toxic doses and inconclusive results are not listed.

The subject of this experiment is P388 leukemia ip, CD2F1 mice, survival T/C. Put plainly: NCI In Vivo Anticancer Drug Screen. Data for tumor model P388 Leukemia (intraperitoneal) in CD2F1 (CDF1) mice. The conditions noted are these: endpoint: median survival time, higher = longer survival. An outline of the steps: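 Mice carrying the transplanted tumor received test compound or vehicle. Survival was recorded in each group, and the value is the treated-group measurement divided by that of the vehicle-treated control group.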

The mark [1] stands for this setting: dose: 50.0 mg/kg/injection, schedule: Q01DX009 (ip), vehicle: saline with Tween-80.
Where [2] appears, read: dose: 100.0 mg/kg/injection, schedule: Q01DX009 (ip), vehicle: saline with Tween-80.
Setting [3] is: dose: 200.0 mg/kg/injection, schedule: Q01DX009 (ip), vehicle: saline with Tween-80.
The mark [4] stands for this setting: dose: 60.0 mg/kg/injection, schedule: Q01DX005 (ip), vehicle: Klucel (hydroxypropylcellulose) (HPC).
[5] abbreviates: dose: 120.0 mg/kg/injection, schedule: Q01DX005 (ip), vehicle: Klucel (hydroxypropylcellulose) (HPC).
The mark [6] stands for this setting: dose: 240.0 mg/kg/injection, schedule: Q01DX005 (ip), vehicle: Klucel (hydroxypropylcellulose) (HPC).
Setting [7] is: dose: 50.0 mg/kg/injection, schedule: Q01DX005 (ip), vehicle: saline with Tween-80.
Where [8] appears, read: dose: 100.0 mg/kg/injection, schedule: Q01DX005 (ip), vehicle: saline with Tween-80.
The mark [9] stands for this setting: dose: 200.0 mg/kg/injection, schedule: Q01DX005 (ip), vehicle: saline with Tween-80.
The mark [10] stands for this setting: dose: 50.0 mg/kg/injection, schedule: Q01DX005 (ip), vehicle: Klucel (hydroxypropylcellulose) (HPC).
[11] abbreviates: dose: 100.0 mg/kg/injection, schedule: Q01DX005 (ip), vehicle: Klucel (hydroxypropylcellulose) (HPC).
The mark [12] stands for this setting: dose: 200.0 mg/kg/injection, schedule: Q01DX005 (ip), vehicle: Klucel (hydroxypropylcellulose) (HPC).
The mark [13] stands for this setting: dose: 50.0 mg/kg/injection, schedule: Q04DX003 (ip), vehicle: saline with Tween-80.
[14] abbreviates: dose: 100.0 mg/kg/injection, schedule: Q04DX003 (ip), vehicle: saline with Tween-80.
The mark [15] stands for this setting: dose: 200.0 mg/kg/injection, schedule: Q04DX003 (ip), vehicle: saline with Tween-80.
Setting [16] is: dose: 60.0 mg/kg/injection, schedule: Q01DX005 (ip), vehicle: saline with Tween-80.
The mark [17] stands for this setting: dose: 120.0 mg/kg/injection, schedule: Q01DX005 (ip), vehicle: saline with Tween-80.
Setting [18] is: dose: 240.0 mg/kg/injection, schedule: Q01DX005 (ip), vehicle: saline with Tween-80.
The mark [19] stands for this setting: dose: 50.0 mg/kg/injection, schedule: Q01DX009 (ip), vehicle: Klucel (hydroxypropylcellulose) (HPC).
Where [20] appears, read: dose: 100.0 mg/kg/injection, schedule: Q01DX009 (ip), vehicle: Klucel (hydroxypropylcellulose) (HPC).
Setting [21] is: dose: 200.0 mg/kg/injection, schedule: Q01DX009 (ip), vehicle: Klucel (hydroxypropylcellulose) (HPC).

On to `CCCCCCC(=O)CC(SCC)c1ccc(Cl)c(Cl)c1` (stereo not given), for which the T/C was 100 % of control under setting [1], 97 % of control under setting [2] and 106 % of control under setting [3].
Consider `CN(C=O)c1ccc(C(=O)NC(CCC(=O)O)C(=O)O)cc1` (stereo not given), for which the T/C was 98 % of control under setting [4], 98 % of control under setting [5] and 89 % of control under setting [6].
As for `CCCCCCCN(CCCCCCC)CC(O)c1c(OC)c2cc(Br)ccc2c2ccc(Br)cc12` (stereo not given), the T/C (dose: 7.5 mg/kg/injection, schedule: Q01DX009 (ip), vehicle: saline with Tween-80) is 93 % of control; the T/C (dose: 15.0 mg/kg/injection, schedule: Q01DX009 (ip), vehicle: saline with Tween-80) is 100 % of control; the T/C (dose: 30.0 mg/kg/injection, schedule: Q01DX009 (ip), vehicle: saline with Tween-80) was 93 % of control.
On to `O=C(Nc1cccc2c1C(=O)c1cccc(Nc3ccc(NC(=O)c4ccccc4)c4c3C(=O)c3ccccc3C4=O)c1C2=O)c1ccccc1`, for which the T/C was 95 % of control under setting [7], 89 % of control under setting [8] and 93 % of control under setting [9].
In the same order, the values of `COc1ccc2nc(-c3ccccc3)cc(C(=O)/C=C/c3ccc(N(C)C)cc3)c2c1` are 89 % of control, 86 % of control and 89 % of control.
Regarding `CCCCCC(=O)NCC(=O)NC1C(C)OC(Nc2ncnc3nc[nH]c23)C(O)C1O` (stereo not given), the T/C was 99 % of control (dose: 0.5 mg/kg/injection, schedule: Q01DX009 (ip), vehicle: other); 102 % of control (dose: 1.0 mg/kg/injection, schedule: Q01DX009 (ip), vehicle: other); 106 % of control (dose: 2.0 mg/kg/injection, schedule: Q01DX009 (ip), vehicle: other); 106 % of control (dose: 4.0 mg/kg/injection, schedule: Q01DX009 (ip), vehicle: other); 99 % of control (dose: 8.0 mg/kg/injection, schedule: Q01DX009 (ip), vehicle: other).
Take `O=C(NC(Cc1ccc(Br)cc1)C(=O)O)c1ccc(Cl)cc1` (stereo not given): the T/C under setting [10] is 100 % of control, the T/C under setting [11] was 100 % of control and the T/C under setting [12] was 102 % of control.
Consider `COc1ccc2c(c1OC)C(=O)OC2`, for which the T/C runs as follows: under setting [10], 90 % of control; under setting [11], 90 % of control; under setting [12], 90 % of control.
Take `COc1ccc(Nc2c3sc4cc(OC)ccc4nc-3c3ccccc3c2=O)cc1`: the T/C is 94 % of control under setting [7], 92 % of control under setting [8] and 94 % of control under setting [9].
`COc1c2c(c3c(c1OC)CN(CC(c1ccccc1)c1ccccc1)CC3)CCC2`: the T/C by setting is: (dose: 100.0 mg/kg/injection, schedule: Q04DX002 (ip), vehicle: saline) 101 % of control; (dose: 200.0 mg/kg/injection, schedule: Q04DX002 (ip), vehicle: saline) 103 % of control; (dose: 400.0 mg/kg/injection, schedule: Q04DX002 (ip), vehicle: saline) 103 % of control.
In the case of `CC(CNC(=O)CCOS(C)(=O)=O)NC(=O)CCOS(C)(=O)=O` (stereo not given), the T/C reads like this: (dose: 12.5 mg/kg/injection, schedule: Q04DX003 (ip), vehicle: saline with Tween-80) 100 % of control; under setting [13], 154 % of control; under setting [2], 154 % of control; under setting [14], 150 % of control; under setting [3], 177 % of control; under setting [15], 175 % of control. Moreover, the T/C runs as follows: (dose: 400.0 mg/kg/injection, schedule: Q01DX009 (ip), vehicle: saline with Tween-80) 90 % of control; (dose: 400.0 mg/kg/injection, schedule: Q04DX003 (ip), vehicle: saline with Tween-80) 241 % of control.
With `[O-][N+]1=C(/C=C/C=C/c2ccccc2)CCC1`, the T/C (dose: 50.0 mg/kg/injection, schedule: Q01DX009 (ip), vehicle: other) is 95 % of control; the T/C (dose: 100.0 mg/kg/injection, schedule: Q01DX009 (ip), vehicle: other) was 107 % of control; the T/C (dose: 200.0 mg/kg/injection, schedule: Q01DX009 (ip), vehicle: other) is 118 % of control.
As for `O=c1[nH]c(=O)c2c([nH]1)oc1ccccc12`, the T/C is, setting by setting: under setting [16], 102 % of control; under setting [17], 95 % of control; under setting [18], 98 % of control.
On to `Clc1nc(-c2ccccc2)ns1`, for which the T/C is, setting by setting: (dose: 25.0 mg/kg/injection, schedule: Q01DX009 (ip), vehicle: Klucel (hydroxypropylcellulose) (HPC)) 86 % of control; under setting [19], 106 % of control; under setting [20], 102 % of control; under setting [21], 104 % of control.
For `CCN(C(=O)CNCC(C)C)c1ccc(C)c(Cl)c1`, the T/C runs as follows: (dose: 50.0 mg/kg/injection, schedule: Q01DX005 (ip), vehicle: saline) 100 % of control; (dose: 100.0 mg/kg/injection, schedule: Q01DX005 (ip), vehicle: saline) 99 % of control.
Take `CC(NC(=O)C(Cc1c[nH]c2ccccc12)NC(=O)OCc1ccccc1)C(=O)O` (stereo not given): the T/C is, setting by setting: under setting [7], 119 % of control; under setting [8], 103 % of control; under setting [9], 97 % of control.
Turning to `CC1C(=O)OC2C1CCC1(C)CCC(=O)C(C)C21` (stereo not given), the T/C (dose: 100.0 mg/kg/injection, schedule: Q04DX002 (ip), vehicle: saline with Tween-80) was 101 % of control.
Regarding `CC(C)=NOC(=O)Nc1ccc(F)cc1`, the T/C under setting [4] is 93 % of control, the T/C under setting [5] is 103 % of control and the T/C under setting [6] is 106 % of control.
As for `COC1C=COC2(C)Oc3c(C)c(O)c4c(O)c(c(C5SCCS5)c(O)c4c3C2=O)NC(=O)C(C)=C/C=C\C(C)C2OC(C)(C)OC(C2C)C(C)C(OC(C)=O)C1C` (stereo not given), the T/C is, setting by setting: under setting [1], 109 % of control; under setting [2], 102 % of control; under setting [3], 96 % of control.
As to `Cc1cccc(N=C(c2ccccc2)C2C(=O)c3ccccc3C2=O)c1`, the T/C was 94 % of control under setting [7], 94 % of control under setting [8] and 91 % of control under setting [9].
For the compound `O=[N+]([O-])c1ccc2[nH]ncc2c1`, the T/C was 100 % of control under setting [1], 100 % of control under setting [2] and 110 % of control under setting [3].
Take `CCCOCC(O)CNCCN` (stereo not given): the T/C was 100 % of control under setting [19], 102 % of control under setting [20] and 109 % of control under setting [21].
Regarding `CN1C(Sc2ccccc2)=NN(c2ccccc2)CN1c1ccccc1`, the T/C under setting [13] is 93 % of control, the T/C under setting [14] was 97 % of control and the T/C under setting [15] was 88 % of control.
Turning to `CCO/C=C/C(=O)O`, the T/C was 106 % of control under setting [16], 100 % of control under setting [17] and 107 % of control under setting [18].
On to `CC(NC(=O)C(c1ccccc1)c1ccccc1)C(=O)O` (stereo not given), for which the T/C was 97 % of control under setting [10], 107 % of control under setting [11] and 97 % of control under setting [12].
On to `Oc1ccc2ccc3cccc4ccc1c2c34`, for which the T/C under setting [7] was 100 % of control, the T/C under setting [8] was 100 % of control and the T/C under setting [9] is 100 % of control.
Turning to `CN(C)CCCNc1cccc2c1C(=O)c1c(NCCCN(C)C)cccc1C2=O`, the T/C was 99 % of control (dose: 3.75 mg/kg/injection, schedule: Q01DX009 (ip), vehicle: saline); 105 % of control (dose: 7.5 mg/kg/injection, schedule: Q01DX009 (ip), vehicle: saline); 98 % of control (dose: 12.5 mg/kg/injection, schedule: Q01DX009 (ip), vehicle: water); 106 % of control (dose: 15.0 mg/kg/injection, schedule: Q01DX009 (ip), vehicle: saline); 95 % of control (dose: 25.0 mg/kg/injection, schedule: Q01DX009 (ip), vehicle: water); 96 % of control (dose: 30.0 mg/kg/injection, schedule: Q01DX009 (ip), vehicle: saline). Further, the T/C (dose: 60.0 mg/kg/injection, schedule: Q01DX009 (ip), vehicle: saline) was 90 % of control.

For the origin of these results see PubChem BioAssay AID330 (DTP/NCI, 2004).
